These results are taken from publication PMC8991199, “Promiscuity mapping of the S100 protein family using a high-throughput holdup assay” (Scientific Reports, 2022).

Molecules are shown by their SMILES. Where a chain is given by its changes, count along the chain named.

Common to all, as to format: binding
Test [1] deals with T1, S100A15 (Homo sapiens, UniProt Q86SG5).
T1 sequence (Q86SG5 1-101): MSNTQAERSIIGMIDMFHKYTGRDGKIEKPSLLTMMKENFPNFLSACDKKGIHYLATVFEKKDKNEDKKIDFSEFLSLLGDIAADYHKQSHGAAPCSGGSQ
Briefly: direct fluorescence polarization (FP), S100A15. The note with it: S100A15, 50 nM labeled foldamer, 20 mM HEPES pH 7.5, 150 mM NaCl, 1 mM CaCl2, 0.5 mM TCEP, 0.01% Tween20, quadratic fit, mean ± SEM, three technical repeats, threshold 1 mM. The protocol: (§1) HTP (and also low-throughput) measurements generally need to be validated by an orthogonal approach to eliminate experimental artifacts. […] This way, we chose WL, IF, WW, YF, IL, VL, TW, RF, RR, TI, TM, and after resynthesizing with a fluorescent label at the C-terminus (Figs. S15–S26, Table S1), the S100ome was tested against the labeled foldamers by direct fluorescence polarization (FP) (Fig. 3A). In this assay, the association of the fluorescently labeled foldamer and the S100 protein of interest is monitored, through the change in polarization of the emitted light by the fluorophore upon the binding event. In direct FP, the presence of the fluorophore might change the binding affinity of some foldamers. […] Nevertheless, we assumed that the fluorophore would affect all foldamers that target the same binding site to the same degree, because the foldamer scaffold is rigid. Defining the threshold of detection at the dissociation constant of 1 mM, we identified 87 interactions between the selected foldamer fragments and the S100ome out of 220 possible interactions (Table 1, Fig. S4-14).
(§2) Briefly, S100 proteins were cloned into a modified pET15b vector with a TEV protease cleavable N-terminal His6-tag and expressed in Escherichia coli BL21 (DE3) cells, followed by Ni^2+-affinity chromatography. For HU assay, S100 proteins were further purified by either hydrophobic interaction chromatography or ion exchange chromatography without the cleavage of the N-terminal His6-tag applying standard conditions. For direct FP measurements, the N-terminal His6-tag was cleaved, and the S100 proteins were purified by hydrophobic interaction chromatography, ion exchange chromatography or size exclusion chromatography. The quality of the recombinant proteins was checked by SDS-PAGE analysis in all cases. The concentration of the recombinant S100 proteins was determined by UV spectrophotometry using the absorbance of Tyr and Trp residues.
(§3) In direct fluorescence polarization assays, S100 proteins were diluted in a buffer containing 50 nM labeled foldamer, 20 mM HEPES pH 7.5, 150 mM NaCl, 1 mM CaCl2, 0.5 mM TCEP and 0.01% Tween20. The dilution series (50 µl) were divided into three technical repeats and transferred (15 µl) to a 384-well microplate. In competitive fluorescence polarization assays, the buffer applied in direct measurements was supplemented with the S100 protein of interest to reach a saturation of 60–80%. This mixture was titrated with the competitor (i.e. the unlabeled peptide). Fluorescence polarization was measured in 8 different S100 concentrations (one of which contained no S100 protein) on a Synergy H4 plate reader using 485 ± 20 nm and 528 ± 20 nm band-pass filters for excitation and emission, respectively. The Kd values were obtained by fitting the data from the FP measurements with the python-based ProFit software using quadratic and competitive binding equation for direct and competitive FP, respectively. The detection threshold was based on two parameters. First, we rejected all fitted dissociation constants above 1 mM.
For orientation: In fluorescence polarisation assays a small probe gives low polarisation when free and higher when bound to something large.

Test [2] concerns the target T2, S100A7 (Homo sapiens, UniProt P31151).
T2 sequence (P31151 1-101): T1 sequence (Q86SG5 1-101) with G22R, G25D, I52T, H53N, T57D, A84T
Briefly: direct fluorescence polarization (FP), S100A7. As to conditions: S100A7, 50 nM labeled foldamer, 20 mM HEPES pH 7.5, 150 mM NaCl, 1 mM CaCl2, 0.5 mM TCEP, 0.01% Tween20, quadratic fit, mean ± SEM, three technical repeats, threshold 1 mM. The protocol: as §1, §2, §3

For test [3], the target named is T3, S100A12 (Homo sapiens, UniProt P80511).
T3 sequence (P80511 1-92): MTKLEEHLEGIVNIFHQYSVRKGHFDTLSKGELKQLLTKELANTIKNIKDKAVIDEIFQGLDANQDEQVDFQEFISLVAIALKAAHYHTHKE
Briefly: direct fluorescence polarization (FP), S100A12. As to conditions: S100A12, 50 nM labeled foldamer, 20 mM HEPES pH 7.5, 150 mM NaCl, 1 mM CaCl2, 0.5 mM TCEP, 0.01% Tween20, quadratic fit, mean ± SEM, three technical repeats, threshold 1 mM. The protocol:
as §1, §2, §3

The target in test [4] is T4, S100A11 (Homo sapiens, UniProt P31949).
T4 sequence (P31949 1-105): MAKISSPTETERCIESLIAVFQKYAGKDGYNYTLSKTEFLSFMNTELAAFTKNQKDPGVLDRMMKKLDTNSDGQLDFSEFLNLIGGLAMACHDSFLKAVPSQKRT
Briefly: direct fluorescence polarization (FP), S100A11. The note with it: S100A11, 50 nM labeled foldamer, 20 mM HEPES pH 7.5, 150 mM NaCl, 1 mM CaCl2, 0.5 mM TCEP, 0.01% Tween20, quadratic fit, mean ± SEM, three technical repeats, threshold 1 mM. The protocol: as §1, §2, §3

Test [5] has as its target S100A4 (Homo sapiens, UniProt P26447). Briefly: direct fluorescence polarization (FP), S100A4. The note with it: S100A4, 50 nM labeled foldamer, 20 mM HEPES pH 7.5, 150 mM NaCl, 1 mM CaCl2, 0.5 mM TCEP, 0.01% Tween20, quadratic fit, mean ± SEM, three technical repeats, threshold 1 mM.
Description: HTP (and also low-throughput) measurements generally need to be validated by an orthogonal approach to eliminate experimental artifacts. […] In this assay, the association of the fluorescently labeled foldamer and the S100 protein of interest is monitored, through the change in polarization of the emitted light by the fluorophore upon the binding event. In direct FP, the presence of the fluorophore might change the binding affinity of some foldamers. […] Nevertheless, we assumed that the fluorophore would affect all foldamers that target the same binding site to the same degree, because the foldamer scaffold is rigid.
as §2, §3

Test [6] deals with T5, S100A13 (Homo sapiens, UniProt Q99584).
T5 sequence (Q99584 1-98): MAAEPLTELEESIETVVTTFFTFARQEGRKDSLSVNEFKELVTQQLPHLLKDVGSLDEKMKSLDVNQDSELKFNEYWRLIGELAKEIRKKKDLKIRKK
Briefly: direct fluorescence polarization (FP), S100A13. The note with it: S100A13, 50 nM labeled foldamer, 20 mM HEPES pH 7.5, 150 mM NaCl, 1 mM CaCl2, 0.5 mM TCEP, 0.01% Tween20, quadratic fit, mean ± SEM, three technical repeats, threshold 1 mM. As to the method: as §1, §2, §3

Chain of S100A4 (P26447 whole entry): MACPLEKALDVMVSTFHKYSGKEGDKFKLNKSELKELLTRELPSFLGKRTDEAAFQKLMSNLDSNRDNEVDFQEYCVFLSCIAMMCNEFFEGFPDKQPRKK

The term Kd denotes a measure of binding affinity in units of concentration. For `CC[C@H](C)[C@@H](CC(=O)N[C@H]1CCCC[C@@H]1C(=O)N[C@H]1CCCC[C@@H]1C(=O)N[C@H](CC(=O)N[C@H]1CCCC[C@@H]1C(=O)NCC(=O)N[C@@H](CCCCNC(=O)c1ccc2c(c1)C1(OC2=O)c2ccc(O)cc2Oc2cc(O)ccc21)C(N)=O)CC(C)C)NC(=O)[C@H]1CCCC[C@@H]1N` [fIL], the Kd is greater than 1000 µM in test [1]; greater than 1000 µM in test [2]; greater than 1000 µM in test [3]; greater than 1000 µM in test [4]; 150 ± 4.8 µM in test [5]; greater than 1000 µM in test [6].
